Data from patent US11413278B2, “Compounds and methods for promoting stress resistance” (priority 2015, dated 2022).
pEC50: −log10 of the molar value. Where two headings read alike, the source gives them in different places.

Columns and labels:
C. elegans = type: in vivo, Caenorhabditis elegans; conditions: in vivo
How it was run: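 Worms treated in liquid with compounds in 96-well plates (4 wells each, FUdR to block progeny, 0.2% DMSO controls); H2O2 at 500 μM final added on day 4 of adulthood and viability scored daily.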

FOXO3 = experiment: qPCR analysis of FOXO3-regulated genes; type: cell-based, human; conditions: for fold induction at 10 µM: Homo sapiens; for K = Sestrin induction: score
How it was run: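 WI-38 cells treated with compound at 10 μM for 24 h, followed by Cells-to-Ct RT-qPCR of FOXO3 target genes normalised to B2M, PPIA and GAPDH. FOXO3 or NRF2 dependence tested by prior 10 nM siRNA knockdown (36 h transfection, compound added ~24 h after replating).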

WI-38 cells [1] = experiment: Propidium iodide (PI) cell-death imaging upon H2O2 stress; type: cell-based, human; conditions: for Assay 7: H2O2-resistant, at 10 uM, validated by propidium iodide (PI) cell-death imaging: w/H2O2, 3 hrs/4 hrs/5 hrs, YES/NO; for cytotoxicity at 10 µM: Homo sapiens, WI-38
[2] = Summary score for characterization of 38 core set hits; conditions: for D = Triple resistant: 2-point score, multiplex resistance (cadmium, MMS, H2O2); for S = Sum of Negative scores: human; for C = H2O2- & Cd-resistant: score, resistance to both H2O2 and cadmium
How it was run: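 Composite score. 2 pts each: multiplex stress resistance, FOXO3/NRF2 activation, mTOR down-regulation. Worm lifespan (4–6 independent trials): 0 = no obvious effect, 1 = extension in 2 trials, 2 = extension in >2 trials. −1 for DNA damage and/or cytotoxicity in cultured human cells.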

[3] = tested on: human dermal fibroblast (HDF) primary cells; experiment: H2O2-resistance in primary human dermal fibroblasts; type: cell-based; conditions: for fold induction at 10 µM: Homo sapiens; for Assay 6: H2O2-resistant, at 10 uM, human dermal fibroblast (HDF) primary cells: YES/NO
WI-38 cells [4] = conditions: for No H2O2 stress treatment, at 10 uM (fold change): normalized ATP measurement; for Assay 1: H2O2-resistant: YES/NO, if NO, possibly due to repeated freezing/thawing of stocks
[5] = 24 h, Assay 10(m), at 10 uM, qPCR, read-out: Induction of FOXO3-regulated genes: GADD45A normalized fold-change
[6] = WI-38 cells, 10 μM, 24 hrs, n=4, qPCR normalized by B2M, read-out: DDB1 Normalized fold change
[7] = WI-38 cells, 10 μM, 24 hrs, n=4, qPCR normalized by B2M, read-out: GADD45A Normalized fold change
[8] = WI-38 cells, 10 μM, 24 hrs, n=4, qPCR normalized by B2M, read-out: SESN1 Normalized fold change
[9] = qPCR, WI-38 cells, 10 μM, n=4, 24 hrs, normalized by B2M, read-out: CAT Normalized fold change
[10] = qPCR, WI-38 cells, 10 μM, n=4, 24 hrs, normalized by B2M, read-out: SOD2 Normalized fold change
[11] = qPCR, WI-38 cells, 10 μM, n=4, 24 hrs, normalized by B2M, read-out: TXNIP Normalized fold change
[12] = H2O2 3 hrs, 10 uM, n = 6, negative control 5.44% ± 0.79%, read-out: Percentage of propidium iodide-positive dead cells (under H2O2 stress treatment), 3 hrs
[13] = pre-treatment at 10 uM, 3.5 hours of H2O2, DMSO control 27.4% ± 6.5%, */**/*** = reduced by one/two/three standard deviations, read-out: Percentage of propidium iodide-positive dead cells (under H2O2 stress treatment), at 10 uM
[14] = Experiment 1, HDF cells, read-out: Experiment 1, HDF cells (under H2O2 stress treatment), at 10 uM (fold change)
[15] = Experiment 2, HDF cells, read-out: Experiment 2, HDF cells (under H2O2 stress treatment), at 10 uM (fold change)
[16] = WI-38 cells, 10 μM, (*) = compromised ability to protect cells from H2O2, could be due to stability issue
[17] = asterisks indicate the loss of the ability to protect cells from H2O2 over time
[18] = read-out: Est. ED50, dose response 0.6-20 μM, H2O2-resistance
[19] = H2O2 4 hrs, 10 uM, n = 6, negative control 16.81% ± 1.42%, read-out: Percentage of propidium iodide-positive dead cells (under H2O2 stress treatment), 4 hrs

For `CC(C)(C)c1ccc(OCC(=O)Nc2ccc3c4c(cccc24)C(=O)NC3=O)cc1` [O22], the “L = H2O2-resistance in worms” value (C. elegans) was 0, the “N = H2O2-resistance in woms” value (C. elegans) was 0 and the “E = Potential FOXO3 Activation” value (FOXO3; 2-point score) was 0. The fold induction at 10 µM (FOXO3; [5]) was 1.23, the fold induction at 10 µM (FOXO3; 10 μM, 24 hrs, WI-38 cells, qPCR, normalized to B2M, n = 4, read-out: GADD45A expression, normalized fold change (FOXO3-regulated gene)) was 1.23 and the fold induction at 10 µM (FOXO3; [6]) was 1.04. It also gave a fold induction at 10 µM (FOXO3; [7]) of 1.23, a fold induction at 10 µM (FOXO3; [8]) of 1.29 and a fold induction at 10 µM (FOXO3; fold change, qPCR, WI-38 cells, 10 μM, 24 hrs, read-out: Summary of effects on FOXO3-regulated genes: GADD45A) of 1.23. The fold induction at 10 µM (FOXO3; [9]) was 1.04, the fold induction at 10 µM (FOXO3; [10]) was 1.02 and the fold induction at 10 µM (FOXO3; [11]) was 0.742. For the same molecule, the “K = Sestrin induction” value (FOXO3) was 0, the “E = Potential FOXO3 Activation” value (FOXO3; summary score) was 0 and the “Assay 7: H2O2-resistant, at 10 uM, validated by propidium iodide (PI) cell-death imaging” value (“Assay 7: H2O2-resistant, at 10 uM” below) (WI-38 cells [1]; 10 uM) was “YES”. The cytotoxicity at 10 µM (WI-38 cells [1]; [12]) was 4.84%, the cytotoxicity at 10 µM (WI-38 cells [1]; [13]) was 4.1% and the “D = Triple resistant” value [2] was 2. The “S = Sum of Negative scores” value [2] was 0, the “C = H2O2- & Cd-resistant” value [2] was 1 and the fold induction at 10 µM [3, 14] was 15.3. For the same molecule, the fold induction at 10 µM [3, 15] was 49.6, the “Assay 6: H2O2-resistant, at 10 uM, human dermal fibroblast (HDF) primary cells” value (shortened to “Assay 6: H2O2-resistant, at 10 uM”) [3] was “YES” and the H2O2-resistant (WI-38 cells [4]; [16]) was “YES”. For the same molecule, the “No H2O2 stress treatment, at 10 uM (fold change)” value (WI-38 cells [4]; WI-38 cells) was 0.96 fold change, the “Assay 1: H2O2-resistant” value (WI-38 cells [4]) was “YES” and the H2O2-resistant (WI-38 cells [4]; [17]) was “YES”. The pEC50 (WI-38 cells [4]; [18]) was 4.70.
For `CCc1ccc(Oc2nc3ccccn3c(=O)c2/C=C(\C#N)C(=O)NC2CCCCC2)cc1` [Gr-5A], the “H2O2-resistance assay, 1st experiment” value (C. elegans) was “YES;”, the “L = H2O2-resistance in worms” value (C. elegans) was 0 and the “N = H2O2-resistance in woms” value (C. elegans) was 0. The “E = Potential FOXO3 Activation” value (FOXO3; 2-point score) was 0, the fold induction at 10 µM (FOXO3; [6]) was 1.2 and the fold induction at 10 µM (FOXO3; [7]) was 0.841. It also gave a fold induction at 10 µM (FOXO3; [8]) of 1.38, a fold induction at 10 µM (FOXO3; [9]) of 1.17 and a fold induction at 10 µM (FOXO3; [10]) of 1.12. For the same molecule, the fold induction at 10 µM (FOXO3; [11]) was 1.14, the “K = Sestrin induction” value (FOXO3) was 0 and the “E = Potential FOXO3 Activation” value (FOXO3; summary score) was 0. For the same molecule, the “Assay 7: H2O2-resistant, at 10 uM” value (WI-38 cells [1]; 10 uM) was “YES”, the cytotoxicity at 10 µM (WI-38 cells [1]; [12]) was 1.64% and the cytotoxicity at 10 µM (WI-38 cells [1]; [19]) was 8.97%. For the same molecule, the cytotoxicity at 10 µM (WI-38 cells [1]; [13]) was 3.7%, the “D = Triple resistant” value [2] was 0 and the “S = Sum of Negative scores” value [2] was 0. For the same molecule, the “C = H2O2- & Cd-resistant” value [2] was 1, the fold induction at 10 µM [3, 14] was 2.95 and the fold induction at 10 µM [3, 15] was 2. The “Assay 6: H2O2-resistant, at 10 uM” value [3] was “YES”, the H2O2-resistant (WI-38 cells [4]; [16]) was “YES” and the “No H2O2 stress treatment, at 10 uM (fold change)” value (WI-38 cells [4]; WI-38 cells) was 1.14 fold change. The H2O2-resistant (WI-38 cells [4]; [17]) was “YES” and the pEC50 (WI-38 cells [4]; [18]) was 4.99.
For `Cc1ccc(NC(=O)c2ccc([N+](=O)[O-])o2)cc1C` [Gr-1F], the “L = H2O2-resistance in worms” value (C. elegans) was 0, the “N = H2O2-resistance in woms” value (C. elegans) was 0 and the “E = Potential FOXO3 Activation” value (FOXO3; 2-point score) was 0. It also gave a fold induction at 10 µM (FOXO3; 24 h, Assay 10(m), at 10 uM, qPCR, read-out: Induction of FOXO3-regulated genes: DDB1 normalized fold-change) of 1.12, a fold induction at 10 µM (FOXO3; [5]) of 0.8 and a fold induction at 10 µM (FOXO3; 24 h, Assay 10(m), at 10 uM, qPCR, read-out: Induction of FOXO3-regulated genes: SESN1 normalized fold-change) of 1.64. The fold induction at 10 µM (FOXO3; WI-38, 24 h, read-out: SESN1 expression) was greater than 1.5, the fold induction at 10 µM (FOXO3; 10 μM, 24 hrs, WI-38 cells, qPCR, normalized to B2M, n = 4, read-out: CAT expression, normalized fold change (FOXO3-regulated gene)) was 1.35 and the fold induction at 10 µM (FOXO3; 10 μM, 24 hrs, WI-38 cells, qPCR, normalized to B2M, n = 4, read-out: SESN1 expression, normalized fold change (FOXO3-regulated gene)) was 2. For the same molecule, the fold induction at 10 µM (FOXO3; [6]) was 1.37, the fold induction at 10 µM (FOXO3; [7]) was 1.02 and the fold induction at 10 µM (FOXO3; [8]) was 2. For the same molecule, the fold induction at 10 µM (FOXO3; fold change, qPCR, WI-38 cells, 10 μM, 24 hrs, read-out: Summary of effects on FOXO3-regulated genes: CAT) was 1.35, the fold induction at 10 µM (FOXO3; fold change, qPCR, WI-38 cells, 10 μM, 24 hrs, read-out: Summary of effects on FOXO3-regulated genes: SESN1) was 2 and the fold induction at 10 µM (FOXO3; [9]) was 1.35. The fold induction at 10 µM (FOXO3; [10]) was 1.68, the fold induction at 10 µM (FOXO3; [11]) was 1.54 and the “K = Sestrin induction” value (FOXO3) was 1. The “E = Potential FOXO3 Activation” value (FOXO3; summary score) was 0, the “Assay 7: H2O2-resistant, at 10 uM” value (WI-38 cells [1]; 10 uM) was “YES” and the cytotoxicity at 10 µM (WI-38 cells [1]; [12]) was 3.55%. The cytotoxicity at 10 µM (WI-38 cells [1]; [19]) was 3.07%, the cytotoxicity at 10 µM (WI-38 cells [1]; H2O2 5 hrs, 10 uM, n = 6, negative control 22.50% ± 1.53%, read-out: Percentage of propidium iodide-positive dead cells (under H2O2 stress treatment), 5 hrs) was 4.57% and the cytotoxicity at 10 µM (WI-38 cells [1]; [13]) was 11.2%. For the same molecule, the “D = Triple resistant” value [2] was 0, the “S = Sum of Negative scores” value [2] was 2 and the “C = H2O2- & Cd-resistant” value [2] was 1. The fold induction at 10 µM [3, 14] was 5.84, the fold induction at 10 µM [3, 15] was 52.3 and the “Assay 6: H2O2-resistant, at 10 uM” value [3] was “YES”. The H2O2-resistant (WI-38 cells [4]; [16]) was “YES”, the “No H2O2 stress treatment, at 10 uM (fold change)” value (WI-38 cells [4]; WI-38 cells) was 0.60 fold change and the “Assay 1: H2O2-resistant” value (WI-38 cells [4]) was “YES”. The H2O2-resistant (WI-38 cells [4]; [17]) was “YES”, the pEC50 (WI-38 cells [4]; derived from dose response curves, 0.6-20 uM, H2O2-resistance of WI-38 cells) was 4.83 and the pEC50 (WI-38 cells [4]; [18]) was 5.54.
